{"source": "patent US11241448B2", "about": "“Methods for cancer therapy” (Millennium Pharmaceuticals, Inc., priority 2014, dated 2022)", "key": {"[1]": {"conditions": "upon contact with either plasma or aqueous solutions; cited from earlier work"}, "[2]": {"target": "β5 proteasome (Homo sapiens, UniProt P28074)", "conditions": "in contrast to bortezomib; cited from earlier work"}, "[3]": {"target": "receptors", "conditions": "read-out: IC50 values against receptors; cited from earlier work"}, "[4]": {"system": "patients with advanced solid tumors, lymphoma, RRMM, and relapsed or refractory AL amyloidosis", "conditions": "cited from earlier work"}, "[5]": {"system": "multiple myeloma patients who completed induction therapy", "assay": "Clinical study of oral single-agent ixazomib maintenance therapy", "format": "in vivo, human", "text": "These patients completed induction therapy and progressed to the maintenance phase."}, "[6]": {"conditions": "in contrast to bortezomib; cited from earlier work"}, "[7]": {"system": "kinases", "conditions": "read-out: IC50 values against kinases; cited from earlier work"}, "[8]": {"target": "β2 site of the 20S proteasome (Homo sapiens, UniProt Q99436)", "conditions": "at higher concentrations; cited from earlier work"}, "[9]": {"system": "tumor xenografts", "conditions": "in contrast to bortezomib; cited from earlier work"}, "[10]": {"target": "β1 site of the 20S proteasome (Homo sapiens, UniProt P28072)", "conditions": "at higher concentrations; cited from earlier work"}, "[11]": {"system": "patients with relapsed, refractory multiple myeloma", "assay": "Exposure-response logistic regression analyses, phase 1 study of weekly single-agent ixazomib", "format": "in vivo, human", "conditions": "starting dose 3.0 mg weekly", "text": "The methods and results of these analyses are described below.\nThe metric of exposure (Ex) was AUC per day (derived from individual clearance values using population pharmacokinetics) for both exposure logistic regression analyses Ex/S and Ex/E. Ex/S analysis was done on seven adverse events (AEs): non-hematologic (non-H) (fatigue, rash, peripheral neuropathy, diarrhea) and hematologic (H) (anemia, thrombocytopenia, neutropenia). The non-hematologic adverse events data were categorized into grade≥2 vs. grade≤1 groups while hematologic adverse events data were grouped into grade≥3 vs. grade≤2. The data were categorized in this way as maintenance treatment should have a tolerable adverse events profile and contribute to acceptable quality of life. Different cut-offs were used for hematologic and non-hematologic adverse events because grade 3 hematologic adverse events may have less impact on quality of life and be more manageable than grade 2 non-hematologic adverse events such as diarrhea. For exposure efficacy (Ex/E), data were categorized as: ≥stable disease (SD) vs. progressive disease (PD). Clinical benefit rate including SD achieved in relapsed or refractory patients may be a meaningful predictor of expected response in a maintenance setting. The logistic regression analyses were done using SPLUS software version 8.1."}, "[12]": {"conditions": "of 10 patients who improved during maintenance"}}, "note": "Counter-ions that a name gives are not always drawn."}
{"smiles": "CC(C)C[C@H](NC(=O)CNC(=O)c1cc(Cl)ccc1Cl)B1OC(=O)C(CC(=O)O)(CC(=O)O)O1", "note": "[ixazomib citrate]", "values": [{"measurement": "hydrolysis to ixazomib", "setting": "[1]", "result": "rapidly hydrolyzes"}]}
{"smiles": "CC(C)C[C@H](NC(=O)CNC(=O)c1cc(Cl)ccc1Cl)B(O)O", "note": "[ixazomib]", "values": [{"measurement": "dissociation rate from the proteasome", "setting": "[2]", "result": "faster dissociation rate"}, {"measurement": "IC50", "setting": "[3]", "result": "> 10", "unit": "µM"}, {"measurement": "clinical activity", "setting": "[4]; advanced solid tumors, lymphoma, RRMM, AL amyloidosis", "result": "early signs of activity"}, {"measurement": "emerging safety profile / tolerability", "setting": "[4]; clinical studies", "result": "generally well tolerated"}, {"measurement": "toxicity profile", "setting": "[4]; clinical studies", "result": "favorable toxicity profile with low rates of peripheral neuropathy"}, {"measurement": "survival of patients who received maintenance", "setting": "[5]; after follow-up of 25.1-33.9 months", "result": "alive"}, {"measurement": "best overall response: complete response (CR) or better, percent of patients", "setting": "[5]; n=21, maintenance therapy", "result": 52, "unit": "%"}, {"measurement": "best overall response: very good partial response (VGPR) or better, percent of patients", "setting": "[5]; n=21, maintenance therapy", "result": 71, "unit": "%"}, {"measurement": "median duration of response", "setting": "[5]; n=21, range 6.7-31.18", "result": 21.65, "unit": "months"}, {"measurement": "improved response CR to sCR, patients", "setting": "[5]; [12]", "result": "2/10"}, {"measurement": "improved response VGPR to CR, patients", "setting": "[5]; [12]", "result": "5/10"}, {"measurement": "improved response VGPR to near-CR (nCR), patients", "setting": "[5]; [12]", "result": "2/10"}, {"measurement": "improved response VGPR to stringent complete response (sCR), patients", "setting": "[5]; [12]", "result": "1/10"}, {"measurement": "median time to first response (≥rapid response “PR”)", "setting": "[5]; range 0.92-5.78", "result": 0.99, "unit": "months"}, {"measurement": "median time to best response", "setting": "[5]; range 1.02-24.74", "result": 7.46, "unit": "months"}, {"measurement": "tissue penetration", "setting": "[6]", "result": "more prolonged tissue penetration"}, {"measurement": "IC50", "setting": "[7]", "result": "> 10", "unit": "µM"}, {"measurement": "inhibition of activity of the β2 site", "setting": "[8]", "result": "also inhibits the activity"}, {"measurement": "antitumor activity in tumor xenografts", "setting": "[9]", "result": "antitumor activity in a broader range of tumor xenografts"}, {"measurement": "inhibition of activity of the β1 site", "setting": "[10]", "result": "also inhibits the activity"}, {"measurement": "model-predicted clinical benefit rate (≥SD)", "setting": "[11]", "result": "~33", "unit": "%"}, {"measurement": "model-predicted incidence of grade≥2 diarrhea", "setting": "[11]", "result": 19, "unit": "%"}, {"measurement": "model-predicted incidence of grade≥2 fatigue", "setting": "[11]", "result": 19, "unit": "%"}, {"measurement": "model-predicted incidence of grade≥2 rash", "setting": "[11]", "result": 16, "unit": "%"}, {"measurement": "model-predicted incidence of grade≥3 neutropenia", "setting": "[11]", "result": 10, "unit": "%"}, {"measurement": "model-predicted incidence of grade≥3 thrombocytopenia", "setting": "[11]", "result": 22, "unit": "%"}]}
